Patent US5141930A, “Fused thiophene compounds and uses thereof” (Yoshitomi Pharmaceutical Industries, Ltd., priority 1990, dated 1992)
Where a name gives a salt, the structure may show the parent alone.

How the values were obtained:
Wistar rats = assay: Anxiolytic effect (Vogel type conflict test); assay type: in vivo; conditions: Rattus norvegicus, po; orally 1 hour before test; lowest dose significantly different from 0.5% MC control, P<0.05; read-out: Anxiolytic effect MED (minimum effective dose)
Experimental: Anxiolytic effect (Vogel type conflict test) The test was conducted according to the method of Vogel et al. Wistar rats deprived of water for 72 hours before the test were used. The rats were placed in a plexiglas conflict test box (light compartment: 38×38×20 cm, dark compartment: 10×10×20 cm). A water bottle with a stainless steel spout was fitted to the middle of the outside, so that the spout extended 3 cm into the box at a height of 10 cm above the grid floor. A drinkometer circuit (Ohara Inc., Nihon Koden) was connected with the spout and the number of licks were counted. The rat was placed into the apparatus where an electric shock (0.2-0.3 mA, 0.3 sec) was given once every 20th lick. After the rat received first electric shock, the number of shocks were recorded during the subsequent 3 min. test period. The test compounds were administered orally 1 hour before the test. The minimum effective dose (MED) was defined as the lowest dose producing a statistically significant difference between 0.5% MC-treated (control) and test drug treated punished responses (One-way ANOVA test; P<0.05).

dopamine 2 (D2) receptor = dopamine 2 (D2) receptor (Rattus norvegicus, UniProt P61169); assay: Affinity for dopamine 2 (D2) receptor, 3H-Spiperone binding test; conditions: rat corpus striatum, 0.2 nM 3H-Spiperone, pH 7.1, 37° C., 20 min
[1] = target: T1, serotonin 1A (5-HT1A) receptor (Rattus norvegicus, UniProt P19327); assay: Affinity for serotonin 1A (5-HT1A) receptor, 3H-8-OH-DPAT binding test; conditions: rat hippocampus, 0.2 nM 3H-8-OH-DPAT, pH 7.4, 37° C., 10 min
T1 sequence (P19327 1-422): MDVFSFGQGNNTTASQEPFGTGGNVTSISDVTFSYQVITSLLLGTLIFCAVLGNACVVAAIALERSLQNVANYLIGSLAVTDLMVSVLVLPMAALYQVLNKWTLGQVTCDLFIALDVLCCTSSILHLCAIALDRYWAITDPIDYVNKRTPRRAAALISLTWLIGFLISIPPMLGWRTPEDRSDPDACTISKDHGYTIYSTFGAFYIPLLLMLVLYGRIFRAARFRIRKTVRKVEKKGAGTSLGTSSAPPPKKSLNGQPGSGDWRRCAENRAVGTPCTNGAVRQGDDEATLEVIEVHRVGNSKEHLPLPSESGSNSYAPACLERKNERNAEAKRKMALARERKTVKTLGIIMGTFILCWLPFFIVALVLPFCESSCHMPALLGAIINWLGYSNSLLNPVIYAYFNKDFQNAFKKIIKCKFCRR
Experimental: Affinity for serotonin 1A (5-HT1A) receptor [^3 H-8-Hydroxy-2-dipropylaminotetralin (^3 H-8-OH-DPAT) binding test]
Preparation of crude synaptosome fraction and binding assay were conducted in accordance with the method reported in Journal of Neurochemistry, vol. 44, page 1685, 1985 by Hall et al. Freezed hippocampus dissected out from rats were homogenized in 40 volumes of ice-cold 50 mM Tris-HCl buffer (pH 7.4) and the suspension was centrifuged at 500×g for 10 minutes at 0° C. The supernatant was centrifuged at 40,000×g for 20 minutes at 0° C. and the resulting pellet was homogenized in 40 volumes of the above buffer and incubated at 37° C. for 10 minutes. After completion of reaction, the suspension was centrifuged at 40,000×g for 20 minutes at 0° C. The resulting pellet was washed twice by resuspension in 40 volumes of the above buffer and centrifugation, and finally suspended in 60 volumes of ice-cold 50 mM Tris-HCl buffer (pH 7.4) containing 1 mM manganese chloride for use in the next assay.
To the aliquots (900 μl) of synaptosome membranes solution were added 50 μl of tritiated 8-OH-DPAT solution at the terminal concentration of 0.2 nM and 50 μl of test compound solution or 50 μl of its medium, and incubated at 37° C. for 10 minutes. Then, to the mixture was added 5 ml of ice-cold 50 mM Tris-HCl buffer (pH 7.4), rapidly vacuum-filtered through Whatman GF/B filters and washed twice with 5 ml of the same buffer. The radioactivity of the residue remaining on the filters was measured by liquid scintillation counter. Nonspecific binding was determined under the presence of 10^-5 M serotonin (5-HT). 50% Inhibition concentration (IC50) of the test compound was graphically determined and the inhibition constant (Ki value) was calculated.

[2] = target: T2, serotonin 2 (5-HT2) receptor (Rattus norvegicus, UniProt P14842); assay: Affinity for serotonin 2 (5-HT2) receptor, 3H-Ketanserin binding test; conditions: rat cerebral cortex, 0.2 nM 3H-Ketanserin, pH 7.7, 37° C., 20 min
T2 construct: Freezed cerebral cortex dissected out from rats were homogenized; from tissue; host or cells: rat cerebral cortex, crude synaptosome fraction
Experimental: Affinity for serotonin 2 (5-HT2) receptor (^3 H-Ketanserin binding test)
Preparation of crude synaptosome fraction and binding assay were conducted according to the method reported in Molecular Pharmacology, vol. 21, page 301, 1981 by Leysen et al.
Freezed cerebral cortex dissected out from rats were homogenized in 30 volumes of ice-cold 0.32 M sucrose solution and the suspension was centrifuged at 1000×g for 10 minutes at 10° C. The supernatant was centrifuged at 40,000×g for 20 minutes at 0° C. and the resulting pellet was homogenized in 30 volumes of ice-cold 50 mM Tris-HCl buffer (pH 7.7), and incubated at 37° C. for 10 minutes. The suspension was centrifuged at 40,000×g for 20 minutes at 0° C. again. The resulting pellet was homogenized in 100 volumes of the above buffer and provided as synaptosome membranes solution for the next assay.
To the aliquots (900 μl) of synaptosome membranes solution were added 50 μl of ^3 H-Ketanserin solution at the terminal concentration of 0.2 nM and 50 μl of test compound solution or 50 μl of its medium, and incubated at 37° C. for 20 minutes. After completion of the reaction, the mixture was rapidly vacuum-filtered through Whatman GF/B filters. The filters were washed three times with 5 ml of the above buffer, and then the radioactivity of the residue remaining on the filters was measured by liquid scintillation counter. Nonspecific binding was determined under the presence of 10 μM of mianserin. 50% Inhibition concentration (IC50) of the test compound was graphically determined and the inhibition constant (Ki value) was calculated.

serotonin 1A receptor [3] = conditions: by an interaction with serotonin 1A receptor; cited from earlier work
serotonin 1A receptor [4] = conditions: background statement; cited from earlier work
benzodiazepine receptor = conditions: background statement; cited from earlier work
[5] = tested on: serotonin 1A receptor of medulla oblongata; conditions: through serotonin 1A receptor of medulla oblongata; cited from earlier work

T2 sequence (P14842 whole entry): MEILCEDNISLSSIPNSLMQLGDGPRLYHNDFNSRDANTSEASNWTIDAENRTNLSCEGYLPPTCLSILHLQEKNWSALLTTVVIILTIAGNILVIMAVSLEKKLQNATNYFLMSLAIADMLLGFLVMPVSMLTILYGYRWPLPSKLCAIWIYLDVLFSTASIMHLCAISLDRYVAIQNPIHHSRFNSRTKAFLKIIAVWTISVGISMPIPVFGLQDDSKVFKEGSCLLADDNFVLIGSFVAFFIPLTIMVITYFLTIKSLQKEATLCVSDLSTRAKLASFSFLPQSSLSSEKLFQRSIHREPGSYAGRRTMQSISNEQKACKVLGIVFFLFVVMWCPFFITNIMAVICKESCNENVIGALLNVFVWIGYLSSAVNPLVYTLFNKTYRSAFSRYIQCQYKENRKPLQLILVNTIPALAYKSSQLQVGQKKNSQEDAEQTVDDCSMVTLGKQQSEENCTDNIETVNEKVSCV
Sequence of dopamine 2 (D2) receptor (P61169 whole entry): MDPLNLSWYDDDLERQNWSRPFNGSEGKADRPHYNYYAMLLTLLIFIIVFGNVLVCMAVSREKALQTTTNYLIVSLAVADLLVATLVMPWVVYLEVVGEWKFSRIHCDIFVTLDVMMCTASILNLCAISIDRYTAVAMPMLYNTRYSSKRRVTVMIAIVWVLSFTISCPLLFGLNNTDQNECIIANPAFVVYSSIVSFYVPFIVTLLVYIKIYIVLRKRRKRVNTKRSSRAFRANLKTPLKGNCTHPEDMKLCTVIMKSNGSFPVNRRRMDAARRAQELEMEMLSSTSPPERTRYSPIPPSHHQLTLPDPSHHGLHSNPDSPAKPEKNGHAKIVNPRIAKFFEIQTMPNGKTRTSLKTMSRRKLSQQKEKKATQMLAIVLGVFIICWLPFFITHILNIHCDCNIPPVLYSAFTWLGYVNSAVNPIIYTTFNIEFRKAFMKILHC

SMILES | minimal effective dose (Wistar rats) | Ki (dopamine 2 (D2) receptor) | Ki [1] | Ki [2] | antianxietic action (serotonin 1A receptor [3]) | affinity for serotonin 1A receptor (serotonin 1A receptor [4]) | binding to benzodiazepine receptor (benzodiazepine receptor) | effect on blood pressure [5]
CCc1cc2c(s1)CCCN(CCCCN1CCN(c3ncccn3)CC1)C2=O.O=C(O)/C=C/C(=O)O [Example 46, 2-ethyl-5-[4-(4-(2-pyrimidinyl)-1-piperazinyl)butyl]-5,6,7,8-tetrahydro-4H-thieno[3,2-c]azepin-4-one fumarate] | ≤ 1 mg/kg | 0.078 µM | 0.0013 µM | 0.99 µM | – | – | – | –
CC(=O)c1cc2c(s1)CCCN(CCCCN1CCN(c3ncccn3)CC1)C2=O [13 (maleate)] | 1 mg/kg | 0.19 µM | 0.0016 µM | 1.4 µM | – | – | – | –
O=C1c2ccsc2SCCN1CCCCN1CCN(c2ncccn2)CC1 [Example 103, 2,3-dihydro-4-[4-(4-(2-pyrimidinyl)-1-piperazinyl)butyl]thieno[3,2-f]-1,4-thiazepin-5( (4H)-one fumarate] | – | 1.8 µM | 0.0052 µM | 1.8 µM | – | – | – | –
Cc1cc2c(s1)CCCN(CCCCN1CCN(c3ncccn3)CC1)C2=O [15 (hydrochloride)] | 2.5 mg/kg | 0.14 µM | 0.0021 µM | 1.5 µM | – | – | – | –
O=C1CC2(CCCC2)CC(=O)N1CCCCN1CCN(c2ncccn2)CC1 [buspirone] | – | – | – | – | exhibits antianxietic action | high affinity | not to bind | –
CC(O)c1cc2c(s1)CCCN(CCCCN1CCN(c3ncccn3)CC1)C2=O.O=C(O)/C=C\C(=O)O (centres unmarked) [Example 155, 2-(1-Hydroxyethyl)-5-[4-(4-(2-pyrimidinyl)-1-piperazinyl)butyl]-5,6,7,8-tetrahydro-4H-thieno[3,2-c]azepin-4-one maleate] | 2.5 mg/kg | 0.17 µM | 0.00081 µM | 2.1 µM | – | – | – | –
Cc1cc2c(s1)CCCN(CCCCNCC1COc3ccccc3O1)C2=O.Cl (centres unmarked) [Example 163, 5-[4-((1,4-Benzodioxan-2-yl)methylamino)butyl]-2-methyl-5,6,7,8-tetrahydro-4H-thieno[3,2-c]azepin-4-one hydrochloride] | 2.5 mg/kg | 0.0062 µM | 0.00015 µM | 1.2 µM | – | – | – | –
CCc1cc2c(s1)SCCN(CCCCN1CCN(c3ncccn3)CC1)C2=O [Example 121, 7-ethyl-2,3-dihydro-4-[4-(4-(2-pyrimidinyl)-1-piperazinyl)thieno[3,2-f]-1,4-thiazepin-5(4H)-one hydrochloride 3/2 hydrate] | – | 0.15 µM | 0.0014 µM | 1.1 µM | – | – | – | –
O=C1c2cc(Br)sc2CCCN1CCCCN1CCN(c2ncccn2)CC1 [Example 11, 2-Bromo-5-[4-(4-(2-pyrimidinyl)-1l-piperazinyl)butyl]-5,6,7,8-tetrahydro-4H-thieno[3,2-c]azepin-4-one fumarate] | – | 0.1 µM | 0.00089 µM | 0.9 µM | – | – | – | –
CCCN(CCC)C1CCc2cccc(O)c2C1 (centres unmarked) [8-hydroxy-2-dipropylaminotetralin] | – | – | – | – | – | high affinity | – | lowers blood pressure
CC(=O)c1cc2c(s1)SCCN(CCCCN1CCN(c3ncccn3)CC1)C2=O [Example 117, 7-acetyl-2,3-dihydro-4-[4-(4-(2-pyrimidinyl)-1-piperazinyl)butyl]thieno[3,2-f]-1,4-thiazepin-5(4H)-one] | 5 mg/kg | 0.27 µM | 0.0041 µM | 1.8 µM | – | – | – | –
O=C1c2cc(Br)sc2SCCN1CCCCN1CCN(c2ncccn2)CC1 [Example 107, 7-bromo-2,3-dihydro-4-[4-(4-(2-pyrimidinyl)-1-piperazinyl)butyl]thieno[3,2-f]-1,4-thiazepin-5(4H)-one fumarate 1/2 hydrate] | – | 0.12 µM | 0.0015 µM | 0.99 µM | – | – | – | –
